# According to publication PMC5621377 (Clinical cancer research : an official journal of the …, 2016):
# Legend:
# [1] = system: patients with Rb+ advanced solid tumors or lymphomas; experiment: Phase I dose escalation: DLT and MTD/RDE determination; type: in vivo
# neuroblastoma cell lines = conditions: in vitro, dose-dependent; cited from earlier work
# Jeko-1 MCL xenograft = conditions: doses comparable to those achievable in humans; cited from earlier work
structure (smiles),measurement,setting,value
CN(C)C(=O)c1cc2cnc(Nc3ccc(N4CCNCC4)cn3)nc2n1C1CCCC1 [ribociclib],maximum tolerated dose (MTD),[1]; 3-weeks-on/1-week-off schedule,900 mg/day
same,recommended dose for expansion (RDE),"[1]; human, in vivo, 28 days",600 mg/day
same,number of dose-limiting toxicities during Cycle 1,[1]; in vivo,Nine
same,concentration with marked accumulation of cells in G0/G1 phase,neuroblastoma cell lines,above 100 nmol/L
same,tumor response in xenograft,Jeko-1 MCL xenograft,complete regressions
